Results: patent US8877759B2, “Aminopyrazines as ATR kinase inhibitors” (Vertex Pharnaceuticals Incorporated, priority 2011, dated 2014)

Biological target: T1, full-length ATR (Homo sapiens, UniProt Q13535)
T1 construct: Assays were carried out at 25° C. in the presence of 5 nM full-length ATR
Test: ATR Inhibition Assay (radioactive-phosphate incorporation)
Type: biochemical
Details: for ATR Ki: Ki(app), 5 nM full-length ATR, 10 μM [γ-33P]ATP, 800 μM target peptide, 25° C.

T1 sequence (Q13535 whole entry): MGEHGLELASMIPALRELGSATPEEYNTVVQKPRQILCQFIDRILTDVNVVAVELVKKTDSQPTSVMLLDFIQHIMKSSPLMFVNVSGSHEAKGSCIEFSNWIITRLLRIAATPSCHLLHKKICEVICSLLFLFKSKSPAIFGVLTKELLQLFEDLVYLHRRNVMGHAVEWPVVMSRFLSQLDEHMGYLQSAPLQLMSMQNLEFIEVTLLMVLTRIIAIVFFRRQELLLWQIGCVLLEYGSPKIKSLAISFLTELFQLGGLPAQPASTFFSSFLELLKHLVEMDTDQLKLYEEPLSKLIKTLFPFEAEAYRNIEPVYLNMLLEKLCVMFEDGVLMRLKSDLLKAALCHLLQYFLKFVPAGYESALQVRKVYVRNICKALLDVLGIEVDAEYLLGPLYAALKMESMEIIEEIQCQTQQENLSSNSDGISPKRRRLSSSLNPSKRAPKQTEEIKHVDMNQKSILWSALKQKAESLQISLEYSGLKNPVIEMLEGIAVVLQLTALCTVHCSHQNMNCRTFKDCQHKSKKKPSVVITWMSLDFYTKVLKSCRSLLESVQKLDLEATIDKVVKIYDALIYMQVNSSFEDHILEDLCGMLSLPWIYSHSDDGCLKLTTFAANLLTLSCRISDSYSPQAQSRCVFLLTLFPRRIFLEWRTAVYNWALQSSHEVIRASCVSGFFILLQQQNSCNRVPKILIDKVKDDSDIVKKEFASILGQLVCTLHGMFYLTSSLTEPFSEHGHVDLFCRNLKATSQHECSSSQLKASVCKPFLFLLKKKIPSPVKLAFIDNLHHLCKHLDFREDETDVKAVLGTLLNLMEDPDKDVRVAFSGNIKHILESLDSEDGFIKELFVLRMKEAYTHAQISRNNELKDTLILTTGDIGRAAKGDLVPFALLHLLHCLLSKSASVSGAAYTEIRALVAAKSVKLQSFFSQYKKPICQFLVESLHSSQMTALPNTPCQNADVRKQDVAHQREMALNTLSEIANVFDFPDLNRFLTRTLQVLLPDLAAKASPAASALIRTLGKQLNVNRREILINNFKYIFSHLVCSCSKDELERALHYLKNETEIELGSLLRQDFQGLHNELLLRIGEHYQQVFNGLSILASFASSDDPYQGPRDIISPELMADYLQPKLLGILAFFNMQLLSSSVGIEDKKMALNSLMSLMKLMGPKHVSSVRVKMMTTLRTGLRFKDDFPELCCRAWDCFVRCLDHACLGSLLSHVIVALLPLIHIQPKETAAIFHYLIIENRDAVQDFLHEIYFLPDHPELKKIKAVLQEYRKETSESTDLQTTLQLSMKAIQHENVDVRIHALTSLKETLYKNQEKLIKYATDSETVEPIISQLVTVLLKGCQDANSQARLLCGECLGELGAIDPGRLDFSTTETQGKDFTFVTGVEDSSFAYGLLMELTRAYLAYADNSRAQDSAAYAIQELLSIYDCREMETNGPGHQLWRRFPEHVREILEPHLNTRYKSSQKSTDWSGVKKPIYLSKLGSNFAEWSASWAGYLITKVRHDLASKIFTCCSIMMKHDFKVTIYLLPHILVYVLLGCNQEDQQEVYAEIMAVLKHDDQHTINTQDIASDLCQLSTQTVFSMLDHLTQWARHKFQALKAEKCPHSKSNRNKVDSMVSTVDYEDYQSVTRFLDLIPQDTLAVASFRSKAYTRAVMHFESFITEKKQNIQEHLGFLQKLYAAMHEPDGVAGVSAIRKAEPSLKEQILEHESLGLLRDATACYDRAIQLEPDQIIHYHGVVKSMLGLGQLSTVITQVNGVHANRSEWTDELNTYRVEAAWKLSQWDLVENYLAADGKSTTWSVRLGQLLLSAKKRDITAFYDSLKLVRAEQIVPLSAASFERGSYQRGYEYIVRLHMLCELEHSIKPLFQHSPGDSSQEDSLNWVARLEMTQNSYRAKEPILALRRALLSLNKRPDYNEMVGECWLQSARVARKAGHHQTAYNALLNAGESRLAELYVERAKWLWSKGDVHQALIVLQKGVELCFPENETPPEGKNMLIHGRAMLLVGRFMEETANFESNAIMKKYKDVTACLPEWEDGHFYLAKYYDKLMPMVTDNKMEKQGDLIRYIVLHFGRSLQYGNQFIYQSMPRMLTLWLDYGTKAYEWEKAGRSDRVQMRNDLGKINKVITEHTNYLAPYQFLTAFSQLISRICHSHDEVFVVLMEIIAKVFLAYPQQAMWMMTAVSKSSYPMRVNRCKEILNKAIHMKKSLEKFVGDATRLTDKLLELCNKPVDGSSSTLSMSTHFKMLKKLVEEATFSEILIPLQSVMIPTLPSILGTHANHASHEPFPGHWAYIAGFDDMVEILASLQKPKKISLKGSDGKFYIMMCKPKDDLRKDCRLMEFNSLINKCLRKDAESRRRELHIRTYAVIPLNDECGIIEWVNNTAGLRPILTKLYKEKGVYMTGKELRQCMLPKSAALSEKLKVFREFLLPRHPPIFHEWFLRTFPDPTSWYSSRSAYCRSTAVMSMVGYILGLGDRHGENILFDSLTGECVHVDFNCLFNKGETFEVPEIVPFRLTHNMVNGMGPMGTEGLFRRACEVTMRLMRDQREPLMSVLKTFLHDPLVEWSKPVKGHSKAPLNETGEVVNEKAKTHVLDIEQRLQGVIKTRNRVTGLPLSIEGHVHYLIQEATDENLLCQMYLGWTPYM

| Compound | Ki [nM] | ATR Ki |
| --- | --- | --- |
| CC(C)(C#N)c1cc(-c2cnc(N)c(-c3nnc(-c4cc5c(s4)CCNC5)o3)n2)ccn1 [Compound I-96] | < 1 | – |
| CC(C)(C#N)c1cc(-c2cnc(N)c(-c3cc(-c4ccc(CN[C@H]5CCOC5)cc4)no3)n2)ccn1 [Compound I-97] | < 1 | – |
| CC(C)(C#N)c1cc(-c2cnc(N)c(-c3nnc(-c4ccc(C5COCCN5)cc4)o3)n2)ccn1 (stereo not shown) [Compound I-99] | 20 to 100 | – |
| CN1CCN(Cc2ccc(-c3nnc(-c4nc(-c5ccnc(C(C)(C)C#N)c5)cnc4N)o3)cc2)CC1 [Compound I-100] | 5 to 20 | – |
| N#CC1(c2cc(-c3cnc(N)c(-c4nnc(-c5cccs5)o4)n3)ccn2)CCNCC1 [Compound I-101] | – | +++ (Compounds with a Ki value >5 nM but ≦1 nM are marked with “+++.”) |
| CC(C)(C#N)c1cc(-c2cnc(N)c(-c3cc(-c4ccc(CNCC5COC5)cc4)no3)n2)ccn1 [Compound I-102] | < 1 | – |
| CN(C)CCNc1ccc(-c2nnc(-c3nc(-c4ccnc(C(C)(C)C#N)c4)cnc3N)o2)c(F)c1 [Compound I-103] | 20 to 100 | – |
| CC(C)(C#N)c1cc(-c2cnc(N)c(-c3nnc(-c4ccc(NCC5CNC5)cc4)o3)n2)ccn1 [Compound I-104] | < 1 | – |
| CC(C)(C#N)c1cc(-c2cnc(N)c(-c3nnc(-c4ccc(CNCC5COC5)cc4)o3)n2)ccn1 [Compound I-105] | < 1 | – |
| CC(C)(C#N)c1cc(-c2cnc(N)c(-c3nnc(-c4ccc(O[C@H]5CCNC5)cc4)o3)n2)ccn1 [Compound I-106] | – | +++ (Compounds with a Ki value >5 nM but ≦1 nM are marked with “+++.”) |
| CC(C)(C#N)c1cc(-c2cnc(N)c(-c3nnc(-c4ccc(NC5CNC5)cc4)o3)n2)ccn1 [Compound I-107] | < 1 | – |
| CN(C)CCNc1cc(F)ccc1-c1nnc(-c2nc(-c3ccnc(C(C)(C)C#N)c3)cnc2N)o1 [Compound I-108] | < 1 | – |
| CC(C)(C#N)c1cc(-c2cnc(N)c(-c3nnc(-c4ccc(C5CCNCC5)cc4)o3)n2)ccn1 [Compound I-109] | – | +++ (Compounds with a Ki value >5 nM but ≦1 nM are marked with “+++.”) |
| CC(C)(C#N)c1cc(-c2cnc(N)c(-c3nnc(-c4cccc(N5CC(N)C5)c4)o3)n2)ccn1 [Compound I-110] | < 1 | – |
| CC(C)(C#N)c1cc(-c2cnc(N)c(-c3nnc(-c4cc5c(s4)CNCC5)o3)n2)ccn1 [Compound I-111] | < 1 | – |
| CC(C)(C#N)c1cc(-c2cnc(N)c(-c3nnc(-c4ccc(OCCN)cc4)o3)n2)ccn1 [Compound I-112] | < 1 | – |
| CC(C)(C#N)c1cc(-c2cnc(N)c(-c3nnc(-c4ccc(OC5CNC5)cc4)o3)n2)ccn1 [Compound I-113] | < 1 | – |
| CN(C)CCNc1ccc(-c2nnc(-c3nc(-c4ccnc(C(C)(C)C#N)c4)cnc3N)o2)cc1 [Compound I-114] | – | +++ (Compounds with a Ki value >5 nM but ≦1 nM are marked with “+++.”) |
| CCOC(=O)C(C)(C)c1cc(-c2cnc(N)c(-c3cc(-c4ccccc4)no3)n2)ccn1 [Compound I-115] | – | +++ (Compounds with a Ki value >5 nM but ≦1 nM are marked with “+++.”) |
| CC(C)(C#N)c1cc(-c2cnc(N)c(-c3nnc(-c4ccc(NCCN5CCOCC5)cc4)o3)n2)ccn1 [Compound I-116] | < 1 | – |

| Compound | Ki [nM] | ATR Ki |
| --- | --- | --- |
| CNCCNc1ccc(-c2nnc(-c3nc(-c4ccnc(C(C)(C)C#N)c4)cnc3N)o2)cc1 [Compound I-117] | < 1 | – |
| CC(C)(C#N)c1cc(-c2cnc(N)c(-c3nnc(-c4ccc(N5CCC5)cc4)o3)n2)ccn1 [Compound I-118] | – | +++ (Compounds with a Ki value >5 nM but ≦1 nM are marked with “+++.”) |
| CN1CC(Oc2ccc(-c3nnc(-c4nc(-c5ccnc(C(C)(C)C#N)c5)cnc4N)o3)cc2)C1 [Compound I-121] | < 1 | – |
| CC(C)(C#N)c1cc(-c2cnc(N)c(-c3nnc(-c4ccc(CNC5CCCOC5)cc4)o3)n2)ccn1 (stereo not shown) [Compound I-122] | < 1 | – |
| CC(C)(C#N)c1cc(-c2cnc(N)c(-c3nnc(-c4ccc(N5CC(N)C5)cc4)o3)n2)ccn1 [Compound I-123] | < 1 | – |
| CC(C)(C#N)c1cc(-c2cnc(N)c(-c3nnc(-c4ccc(CNC5CCOCC5)cc4F)o3)n2)ccn1 [Compound I-124] | < 1 | – |
| CC(C)(C#N)c1cc(-c2cnc(N)c(-c3nnc(-c4cccc(N5CCC(N)CC5)c4)o3)n2)ccn1 [Compound I-125] | 5 to 20 | – |
| CC(C)(C#N)c1cc(-c2cnc(N)c(-c3nnc(-c4ccc(CNC5CCOCC5)cc4)o3)n2)ccn1 [Compound I-126] | < 1 | – |
| CC(C)(C#N)c1cc(-c2cnc(N)c(-c3nnc(-c4ccc(C5=CCNCC5)cc4)o3)n2)ccn1 [Compound I-128] | < 1 | – |
| CC(C)(C#N)c1cc(-c2cnc(N)c(-c3nnc(-c4ccc(C5=NCCN5)cc4)o3)n2)ccn1 [Compound I-129] | – | +++ (Compounds with a Ki value >5 nM but ≦1 nM are marked with “+++.”) |
| CC(N)CNc1ccc(-c2nnc(-c3nc(-c4ccnc(C(C)(C)C#N)c4)cnc3N)o2)cc1 (stereo not shown) [Compound I-130] | < 1 | – |
| CN(C)C1CN(c2ccc(-c3nnc(-c4nc(-c5ccnc(C(C)(C)C#N)c5)cnc4N)o3)cc2)C1 [Compound I-131] | < 1 | – |
| CCCN(CCOC)C(=O)c1cc(-c2cnc(N)c(-c3cc(-c4ccccc4)no3)n2)ccn1 [Compound I-132] | – | +++ (Compounds with a Ki value >5 nM but ≦1 nM are marked with “+++.”) |
| COc1ccccc1-c1nnc(-c2nc(-c3ccnc(C4(C#N)CCNCC4)c3)cnc2N)o1 [Compound I-133] | < 1 | – |
| CC(C)(C#N)c1cc(-c2cnc(N)c(-c3nnc(-c4ccc(F)cc4F)o3)n2)ccn1 [Compound I-134] | – | +++ (Compounds with a Ki value >5 nM but ≦1 nM are marked with “+++.”) |
| Nc1ncc(-c2ccnc(CO)c2)nc1-c1cc(-c2ccc(CNC3CCOCC3)cc2)no1 [Compound I-135] | < 1 | – |
| N#CCc1cc(-c2cnc(N)c(-c3cc(-c4ccc(CNC5CCOCC5)cc4)no3)n2)ccn1 [Compound I-136] | < 1 | – |
| N#CCc1cc(-c2cnc(N)c(-c3nnc(-c4ccc(CNC5CCOCC5)cc4)o3)n2)ccn1 [Compound I-137] | < 1 | – |
| CC(C)(C#N)c1nccc(-c2cnc(N)c(-c3cc(-c4ccc(CNC5CCOCC5)cc4)no3)n2)c1F [Compound I-138] | – | +++ (Compounds with a Ki value >5 nM but ≦1 nM are marked with “+++.”) |
| CC(C)(C#N)c1nccc(-c2cnc(N)c(-c3cc(-c4ccc(CNCC5COC5)cc4)no3)n2)c1F [Compound I-139] | 5 to 20 | – |
